The record followed here is article PMC10378394 (Current Issues in Molecular Biology, 2023).

One data set addresses CDK3/cyclinE(h) (Homo sapiens, UniProt Q00526). Kind of data set: Eurofins kinase assay.
Another data set concerns the target Rsk3(h) (Homo sapiens, UniProt Q15349). Kind of data set: Eurofins kinase assay.
Another data set addresses PKCθ(h) (Homo sapiens, UniProt Q04759). Kind of data set: Eurofins kinase assay.
The target of the next data set is PDGFRα(h) (Homo sapiens, UniProt P16234). Kind of data set: Eurofins kinase assay.
PDGFRα(h), sequence (P16234 24-1089): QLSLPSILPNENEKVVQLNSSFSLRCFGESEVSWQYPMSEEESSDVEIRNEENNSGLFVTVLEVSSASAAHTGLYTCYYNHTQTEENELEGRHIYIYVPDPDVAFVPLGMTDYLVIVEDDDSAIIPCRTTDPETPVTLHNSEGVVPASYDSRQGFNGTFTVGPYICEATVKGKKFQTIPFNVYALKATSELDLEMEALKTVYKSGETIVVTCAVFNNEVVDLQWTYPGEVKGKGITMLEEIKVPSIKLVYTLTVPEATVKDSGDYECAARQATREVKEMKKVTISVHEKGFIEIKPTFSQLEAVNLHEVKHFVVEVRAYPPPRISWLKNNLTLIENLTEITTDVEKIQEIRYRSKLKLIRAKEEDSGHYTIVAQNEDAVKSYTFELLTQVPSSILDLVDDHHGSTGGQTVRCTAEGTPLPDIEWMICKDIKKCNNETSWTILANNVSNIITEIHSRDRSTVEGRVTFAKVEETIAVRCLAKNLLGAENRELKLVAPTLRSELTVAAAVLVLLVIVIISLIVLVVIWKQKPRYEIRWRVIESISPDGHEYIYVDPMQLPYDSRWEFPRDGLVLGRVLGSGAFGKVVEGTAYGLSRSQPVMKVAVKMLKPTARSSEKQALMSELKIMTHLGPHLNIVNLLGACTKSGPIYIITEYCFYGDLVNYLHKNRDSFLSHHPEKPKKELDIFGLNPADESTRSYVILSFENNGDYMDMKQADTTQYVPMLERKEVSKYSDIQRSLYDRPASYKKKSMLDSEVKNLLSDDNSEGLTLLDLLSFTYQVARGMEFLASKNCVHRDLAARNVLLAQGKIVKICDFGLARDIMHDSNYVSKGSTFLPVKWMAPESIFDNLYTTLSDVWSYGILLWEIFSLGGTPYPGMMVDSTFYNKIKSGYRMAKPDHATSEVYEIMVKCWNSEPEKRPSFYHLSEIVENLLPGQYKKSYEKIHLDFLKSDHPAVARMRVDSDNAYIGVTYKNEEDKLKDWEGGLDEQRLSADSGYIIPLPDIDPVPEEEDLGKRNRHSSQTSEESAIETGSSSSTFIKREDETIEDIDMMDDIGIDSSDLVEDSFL
The target in a further data set is Rsk1(h) (Homo sapiens, UniProt Q15418). Kind of data set: Eurofins kinase assay.
For another data set, the target named is Aurora-A(h) (Homo sapiens, UniProt O14965). Kind of data set: Eurofins kinase assay.
A further data set deals with MAPK2(h) (Homo sapiens, UniProt P28482). Kind of data set: Eurofins kinase assay.
For data set [1], the target named is PI3Kinase(p110a(E542K)/p85a)(m) (Mus musculus, UniProt P42337, E542K). Briefly: Eurofins kinase assay.
The target in another data set is PAK2(h) (Homo sapiens, UniProt Q13177). Briefly: Eurofins kinase assay.
In another data set the target is PKBγ(h) (Homo sapiens, UniProt Q9Y243). Briefly: Eurofins kinase assay.
A further data set addresses CHK1(h) (Homo sapiens, UniProt O14757). Kind of data set: Eurofins kinase assay.
The nature of data set [2]: Single oral dose, central nervous system. It counts as in vivo, ICR mice. The conditions noted are these: single oral dose 500 mg/kg.
Data set [3] is described as follows: 2-week repeated oral DRF study. The format is in vivo. Particulars: 500 mg/kg oral.
The next data set deals with CK1δ(h) (Homo sapiens, UniProt P48730). Kind of data set: Eurofins kinase assay.
The target of a further data set is PKD2(h) (Homo sapiens, UniProt Q9BZL6). Kind of data set: Eurofins kinase assay.
A further data set concerns the target CDK2/cyclinE(h) (Homo sapiens, UniProt P24941). Briefly: Eurofins kinase assay.
Another data set concerns the target PKBβ(h) (Homo sapiens, UniProt P31751). Kind of data set: Eurofins kinase assay.
The target of a further data set is ATR/ATRIP(h) (Homo sapiens, UniProt Q13535). Kind of data set: Eurofins kinase assay.
ATR/ATRIP(h), sequence (Q13535 whole entry): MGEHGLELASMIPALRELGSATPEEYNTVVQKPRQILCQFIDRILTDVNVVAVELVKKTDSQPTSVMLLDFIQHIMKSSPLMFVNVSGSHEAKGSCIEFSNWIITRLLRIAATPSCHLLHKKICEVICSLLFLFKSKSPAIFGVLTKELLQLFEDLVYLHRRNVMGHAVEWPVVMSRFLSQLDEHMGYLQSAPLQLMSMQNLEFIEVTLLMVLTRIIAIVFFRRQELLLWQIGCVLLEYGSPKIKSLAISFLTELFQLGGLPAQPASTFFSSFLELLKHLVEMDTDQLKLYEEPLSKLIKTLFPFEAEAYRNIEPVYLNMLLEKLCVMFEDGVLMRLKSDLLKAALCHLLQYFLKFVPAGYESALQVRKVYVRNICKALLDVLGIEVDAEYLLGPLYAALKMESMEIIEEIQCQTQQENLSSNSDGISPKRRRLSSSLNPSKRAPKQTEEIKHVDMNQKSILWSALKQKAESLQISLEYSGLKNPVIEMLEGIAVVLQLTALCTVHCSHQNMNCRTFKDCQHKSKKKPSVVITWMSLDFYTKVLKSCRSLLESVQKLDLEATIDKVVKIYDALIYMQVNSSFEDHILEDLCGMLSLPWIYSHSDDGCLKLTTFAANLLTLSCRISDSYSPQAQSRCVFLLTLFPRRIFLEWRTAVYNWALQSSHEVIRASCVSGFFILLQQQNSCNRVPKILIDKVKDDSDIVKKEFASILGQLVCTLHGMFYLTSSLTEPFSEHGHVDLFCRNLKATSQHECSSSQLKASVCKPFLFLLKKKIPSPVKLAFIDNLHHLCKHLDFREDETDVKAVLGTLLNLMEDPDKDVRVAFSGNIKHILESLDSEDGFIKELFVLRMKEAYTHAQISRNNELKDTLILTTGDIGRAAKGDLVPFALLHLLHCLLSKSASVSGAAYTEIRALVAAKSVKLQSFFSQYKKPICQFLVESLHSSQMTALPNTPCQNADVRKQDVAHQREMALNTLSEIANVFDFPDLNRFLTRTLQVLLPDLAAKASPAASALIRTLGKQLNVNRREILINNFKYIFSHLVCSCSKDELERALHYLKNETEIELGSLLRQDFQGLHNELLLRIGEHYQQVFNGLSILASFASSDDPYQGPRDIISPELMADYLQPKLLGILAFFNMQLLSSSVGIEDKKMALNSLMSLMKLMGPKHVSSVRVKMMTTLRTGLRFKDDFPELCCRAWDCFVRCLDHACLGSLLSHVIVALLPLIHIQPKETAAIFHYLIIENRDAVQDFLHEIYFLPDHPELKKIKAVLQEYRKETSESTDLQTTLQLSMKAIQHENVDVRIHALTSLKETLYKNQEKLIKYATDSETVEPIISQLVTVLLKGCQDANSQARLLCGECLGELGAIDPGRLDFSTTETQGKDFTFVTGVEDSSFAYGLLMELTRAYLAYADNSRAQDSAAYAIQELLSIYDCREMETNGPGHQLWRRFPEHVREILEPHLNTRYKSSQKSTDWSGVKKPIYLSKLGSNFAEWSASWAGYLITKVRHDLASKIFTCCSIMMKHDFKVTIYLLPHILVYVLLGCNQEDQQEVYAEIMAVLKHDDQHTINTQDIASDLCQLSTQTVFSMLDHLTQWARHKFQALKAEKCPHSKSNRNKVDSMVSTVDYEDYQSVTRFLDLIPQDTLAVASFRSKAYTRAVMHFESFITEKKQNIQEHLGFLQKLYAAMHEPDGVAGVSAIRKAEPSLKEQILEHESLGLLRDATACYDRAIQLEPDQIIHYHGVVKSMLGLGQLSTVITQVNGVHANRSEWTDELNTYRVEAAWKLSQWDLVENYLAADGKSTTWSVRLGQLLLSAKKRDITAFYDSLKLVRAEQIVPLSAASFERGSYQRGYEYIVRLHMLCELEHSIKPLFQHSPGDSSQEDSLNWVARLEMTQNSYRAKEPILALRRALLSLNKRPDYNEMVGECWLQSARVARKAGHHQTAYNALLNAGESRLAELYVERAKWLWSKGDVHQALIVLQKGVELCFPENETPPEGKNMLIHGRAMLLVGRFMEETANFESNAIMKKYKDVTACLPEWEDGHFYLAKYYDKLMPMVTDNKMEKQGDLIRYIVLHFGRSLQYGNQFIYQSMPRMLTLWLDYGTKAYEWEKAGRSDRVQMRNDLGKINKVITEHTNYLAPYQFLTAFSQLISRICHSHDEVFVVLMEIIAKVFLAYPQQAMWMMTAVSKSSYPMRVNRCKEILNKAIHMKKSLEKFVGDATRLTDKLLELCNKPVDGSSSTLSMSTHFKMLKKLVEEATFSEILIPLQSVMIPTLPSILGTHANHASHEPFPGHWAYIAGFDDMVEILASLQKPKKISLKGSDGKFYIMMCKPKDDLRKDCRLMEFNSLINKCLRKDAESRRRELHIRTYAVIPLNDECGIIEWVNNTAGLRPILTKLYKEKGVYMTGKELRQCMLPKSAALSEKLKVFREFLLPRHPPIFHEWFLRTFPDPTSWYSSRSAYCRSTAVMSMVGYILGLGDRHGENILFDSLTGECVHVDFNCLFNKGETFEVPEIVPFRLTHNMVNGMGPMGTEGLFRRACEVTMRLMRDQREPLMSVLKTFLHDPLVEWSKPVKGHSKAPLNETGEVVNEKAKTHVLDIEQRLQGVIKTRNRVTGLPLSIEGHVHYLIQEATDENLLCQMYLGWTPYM
ATR/ATRIP(h), sequence (Q8WXE1 whole entry partner): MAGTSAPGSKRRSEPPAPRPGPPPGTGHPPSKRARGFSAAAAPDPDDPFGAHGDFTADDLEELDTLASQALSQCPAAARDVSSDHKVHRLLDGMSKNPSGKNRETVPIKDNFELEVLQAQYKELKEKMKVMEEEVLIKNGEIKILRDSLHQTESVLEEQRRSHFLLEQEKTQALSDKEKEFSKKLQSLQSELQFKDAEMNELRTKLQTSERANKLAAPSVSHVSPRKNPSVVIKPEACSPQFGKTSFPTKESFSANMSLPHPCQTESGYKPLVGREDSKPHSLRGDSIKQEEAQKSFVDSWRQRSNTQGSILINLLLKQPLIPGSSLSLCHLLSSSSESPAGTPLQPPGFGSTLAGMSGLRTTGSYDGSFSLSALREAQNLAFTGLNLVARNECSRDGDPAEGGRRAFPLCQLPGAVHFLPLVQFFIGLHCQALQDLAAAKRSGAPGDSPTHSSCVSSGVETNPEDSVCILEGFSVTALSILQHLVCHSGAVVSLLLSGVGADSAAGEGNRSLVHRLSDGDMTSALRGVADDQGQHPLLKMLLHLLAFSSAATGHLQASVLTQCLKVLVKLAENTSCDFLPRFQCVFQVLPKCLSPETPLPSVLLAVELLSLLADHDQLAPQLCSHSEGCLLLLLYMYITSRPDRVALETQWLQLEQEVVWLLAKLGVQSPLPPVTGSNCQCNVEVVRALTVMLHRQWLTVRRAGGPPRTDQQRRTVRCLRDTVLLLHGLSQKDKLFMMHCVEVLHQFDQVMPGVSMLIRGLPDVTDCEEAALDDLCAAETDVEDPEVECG
A further data set has as its target PKA(h) (Homo sapiens, UniProt P17612). Kind of data set: Eurofins kinase assay.
A further data set has as its target PKCγ(h) (Homo sapiens, UniProt P05129). Briefly: Eurofins kinase assay.

Molecules are shown by their SMILES.

PKBβ(h), sequence (P31751 whole entry): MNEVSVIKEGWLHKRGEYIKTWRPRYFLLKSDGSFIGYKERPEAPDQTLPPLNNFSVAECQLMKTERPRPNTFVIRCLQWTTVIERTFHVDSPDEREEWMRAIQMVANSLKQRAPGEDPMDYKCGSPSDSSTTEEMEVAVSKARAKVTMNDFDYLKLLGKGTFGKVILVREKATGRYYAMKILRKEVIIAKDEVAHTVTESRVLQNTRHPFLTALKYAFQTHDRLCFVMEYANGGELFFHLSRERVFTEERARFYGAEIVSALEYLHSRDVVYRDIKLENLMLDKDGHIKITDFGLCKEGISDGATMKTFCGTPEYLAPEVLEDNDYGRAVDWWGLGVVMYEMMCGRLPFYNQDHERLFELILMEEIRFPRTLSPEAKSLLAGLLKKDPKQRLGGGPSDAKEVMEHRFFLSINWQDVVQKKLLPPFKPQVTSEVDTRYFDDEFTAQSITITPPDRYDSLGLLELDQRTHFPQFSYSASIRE

By inhibition is commonly meant the change of the read-out against control, counted positive when it falls. Regarding `O=C(Nc1cc(Nc2ncccc2-c2ncnc3[nH]cnc23)ccc1F)c1cc(C(F)(F)F)cc(C(F)(F)F)c1` [SJ-C1044, N-(5-(3-(9H-purin-6-yl)pyridin-2-ylamino)-2-fluorophenyl)-3,5-bis(trifluoromethyl)benzamide], the inhibition at 10 µM against CDK3/cyclinE(h) was -7%; on Rsk3(h), 4%; against PKCθ(h), 5%; at PDGFRα(h) it was -10%; on Rsk1(h), 0%; at Aurora-A(h) it was 3%. Moreover, the inhibition at 10 µM was -7% against MAPK2(h); 24% in [1]; -1% at PAK2(h); 2% against PKBγ(h); -2% against CHK1(h); 0% on CK1δ(h). Further, the inhibition at 10 µM is 3% at PKD2(h); 2% against CDK2/cyclinE(h); 1% against PKBβ(h); 8% at ATR/ATRIP(h); -2% on PKA(h); 1% at PKCγ(h). Also, the “central nervous system changes” value in data set [2] is listed as “did not result in any abnormal changes”. For the same compound, the “2-week repeated oral toxicity” value in data set [3] is recorded as “no indications of toxicity”.
